In patent publication US12180226B2, “Spirotricycle RIPK1 inhibitors and methods of uses thereof” (Merck Sharp & Dohme LLC, priority 2021, dated 2024):
Structures can show the parent of a compound that is named as a salt.

The compounds below were run against RIPK1 (recombinant GST-RIPK1 kinase domain, residues 1-327) (Homo sapiens (Human), UniProt Q13546) (assay: RIPK1-ADP-Glo Enzymatic Assay). Conditions: ADP-Glo; 25 nM GST-RIPK1, 300 μM ATP; assay lower limit ~25 nM; read-out: RIPK1 V0 Ec50.
Format: biochemical
Outline: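 GST-tagged kinase domain (residues 1-327, Sf21-expressed), 25 nM, pre-incubated 30 min with compound at ambient temperature, then reacted 150 min with 300 μM ATP and 3 μM dephosphorylated MBP in HEPES pH 7.3 buffer. ADP measured by ADP-Glo luminescence; EC50 from ten-point titration (top 100000 nM), four-parameter fit.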

RIPK1 (recombinant GST-RIPK1 kinase domain, residues 1-327), sequence (Q13546 1-327): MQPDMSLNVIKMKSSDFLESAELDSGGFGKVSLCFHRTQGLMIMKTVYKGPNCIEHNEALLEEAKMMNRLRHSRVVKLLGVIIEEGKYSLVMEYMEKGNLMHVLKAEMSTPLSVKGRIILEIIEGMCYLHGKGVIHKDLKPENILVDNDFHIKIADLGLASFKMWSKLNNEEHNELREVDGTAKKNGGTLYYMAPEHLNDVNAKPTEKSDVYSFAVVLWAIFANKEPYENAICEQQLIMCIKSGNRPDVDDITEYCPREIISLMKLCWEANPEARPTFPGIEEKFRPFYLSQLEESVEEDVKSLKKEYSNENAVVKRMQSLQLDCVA

EC50	SMILES
728 nM	O=C1N2[C@@H](CC[C@H]2c2cc(F)cc(F)c2)OC12CCN(S(=O)(=O)c1ccccc1)CC2 [Example 8.1, (5′S,7a′R)-5′-(3,5-Difluorophenyl)-1-(phenylsulfonyl)tetrahydro-3′H-spiro[piperidine-4,2′-pyrrolo[2,1-b]oxazol]-3′-one]
311 nM	O=C(c1ccc(C(F)F)nc1)N1CCC2(CC1)O[C@@H]1CC[C@@H](c3cc(F)cc(F)c3)N1C2=O [Example 6.66, (5′S,7a′R)-1-[6-(difluoromethyl)pyr-idine-3-carbonyl]-5′-(3,5-difluorophenyl)-tetrahydro-3′H-spiro [piperidine-4,2′-pyrrolo[2,1-b][1,3]-oxazol]-3′-one]
25.1 nM	COC(=O)c1cnc(N2CCC3(CC2)O[C@@H]2CC[C@@H](c4ccccc4)N2C3=O)c(OC)c1 [Example 4.197, methyl 5-methoxy-6-[(5′S,7a′R)-3′-oxo-5′-phenyltetrahydro-1H,3′H-spiro[piperidine-4,2′-pyrrolo[2,1-b] [1,3]oxazol]-1-yl]pyridine-3-carboxylate]
46.8 nM	Cc1ccc(C(=O)N2CCC3(CC2)O[C@@H]2CC[C@@H](c4cc(F)cc(F)c4)N2C3=O)cn1 [Example 6.69, (5′S,7a′R)-5′-(3,5-difluorophenyl)-1-(6-methylpyridine-3-carbonyl)tetrahydro-3′H-spiro[piperidine-4,2′-pyrrolo[2,1-b] [1,3]oxazol]-3′-one]
277 nM	N#Cc1ccccc1C(=O)N1CCC2(CC1)O[C@@H]1CC[C@@H](c3cc(F)cc(F)c3)N1C2=O [Example 5.13, 2-((5′S,7a′R)-5′-(3,5-difluorophenyl)-3′-oxo-tetrahydro-3′H-spiro [piperidine-4,2′-pyrrolo-[2,1-b]oxazole]-1-carbon-yl)benzonitrile]
92.6 nM	CC(C)OC(=O)c1ccc(N2CCC3(CC2)O[C@@H]2CC[C@@H](c4ccccc4)N2C3=O)nc1 [Example 4.190, propan-2-yl 6-[(5′S,7a′R)-3′-oxo-5′-phenyltetrahydro-1H,3′H-spiro[piperidine-4,2′-pyrrolo[2,1-b] [1,3]oxazol]-1-yl]pyridine-3-carboxylate]
80.7 nM	COc1cnc(N2CCC3(CC2)O[C@@H]2CC[C@@H](c4cc(F)cc(F)c4)N2C3=O)nc1 [Example 4.64, (5′S,7a′R)-5′-(3,5-difluorophenyl)-1-(5-methoxypyrimidin-2-yl)tetrahydro-3′H-spiro[piperidine-4,2′-pyrrolo[2,1-b] [1,3]oxazol]-3′-one]
706 nM	COc1ccnc(C(=O)N2CCC3(CC2)O[C@@H]2CC[C@@H](c4cc(F)cc(F)c4)N2C3=O)c1 [Example 6.91, (5′S,7a′R)-5′-(3,5-difluorophenyl)-1-(4-methoxypyridine-2-carbonyl)tetrahydro-3′H-spiro[piperidine-4,2′-pyrrolo[2,1-b] [1,3]oxazol]-3′-one]
39.2 nM	C#Cc1cc(C(=O)N2CCC3(CC2)O[C@@H]2CC[C@@H](c4cc(F)cc(F)c4)N2C3=O)ccn1 [Example 5.42, (5′S,7a′R)-5′-(3,5-difluoro-phenyl)-1-(2-ethynylpyri-dine-4-carbonyl)tetra-hydro-3′H-spiro[piperi-dine-4,2′-pyrrolo-[2,1-b] [1,3]oxazol]-3′-one]
< 25 nM	Cc1ccc([C@@H]2CC[C@H]3OC4(CCN(C(=O)c5ccccc5)CC4)C(=O)N32)cc1F [Example 17.15, (5′S,7a′R)-1-(benzenecarbonyl)-5′-(3-fluoro-4-methylphenyl)tetrahydro-3′H-spiro[piperidine-4,2′-pyrrolo[2,1-b][1,3]oxazol]-3′-one]
47.1 nM	N#Cc1cccc(C(=O)N2CCC3(CC2)O[C@@H]2CC[C@@H](c4ccccc4)N2C3=O)c1F [Example 6.140, 2-fluoro-3-[(5′S,7a′R)-3′-oxo-5′-phenyltetra-hydro-1H,3′H-spiro [piperidine-4,2′-pyrrolo[2,1-b][1,3]oxazole]-1-carbonyl] benzonitrile]
128 nM	CC(F)c1cc(N2CCC3(CC2)O[C@@H]2CC[C@@H](c4ccccc4)N2C3=O)ncn1 (stereo partly drawn) [Example 4.214, (5′S,7a′R)-1-[6-(1-fluoroethyl)pyrimidin-4-yl]-5′-phenyltetrahydro-3′H-spiro[piperidine-4,2′-pyrrolo[2,1-b] [1,3]oxazol]-3′-one]
25 nM	O=C1N2[C@@H](CC[C@H]2c2cc(F)cc(F)c2)OC12CCN(c1nccc3nccn13)CC2 [Example 4.82, (5′S,7a′R)-5′-(3,5-difluorophenyl)-1-(imidazo[1,2-c]pyrimidin-5-yl)tetrahydro-3′H-spiro[piperidine-4,2′-pyrrolo[2,1-b]oxazol]-3′-one, TFA salt]
69.2 nM	CCOC(=O)c1coc(-c2ccnc(N3CCC4(CC3)O[C@@H]3CC[C@@H](c5ccccc5)N3C4=O)c2)n1 [Example 4.173, ethyl 2-{2-[(5′S,7a′R)-3′-oxo-5′-phenyltetrahydro-1H,3′H-spiro[piperidine-4,2′-pyrrolo[2,1-b] [1,3]oxazol]-1-yl]pyridin-4-yl}-1,3-oxazole-4-carboxylate]
41.3 nM	COc1cccc(F)c1C(=O)N1CCC2(CC1)O[C@@H]1CC[C@@H](c3cc(F)cc(F)c3)N1C2=O [Example 6.72, (5′S,7a′R)-5′-(3,5-difluorophenyl)-1-(2-fluoro-6-methoxy-benzene-1-carbonyl) tetrahydro-3′H-spiro [piperidine-4,2′-pyrrolo[2,1-b][1,3]-oxazol]-3′-one]
256 nM	CC(F)(F)c1ccnc(N2CCC3(CC2)O[C@@H]2CC[C@@H](c4ccccc4)N2C3=O)c1 [Example 4.262, (5′S,7a′R)-1-[4-(1,1-difluoroethyl)pyridin-2-yl]-5′-phenyltetrahydro-3′H-spiro[piperidine-4,2′-pyrrolo[2,1-b] [1,3]oxazol]-3′-one]
276 nM	O=C(c1cnc2cccnn12)N1CCC2(CC1)O[C@@H]1CC[C@@H](c3cc(F)cc(F)c3)N1C2=O [Example 6.16, (5′S,7a′R)-5′-(3,5-difluorophenyl)-1-(imidazo[1,2-b]-pyridazine-3-carbon-yl)tetrahydro-3′H-spiro[piperidine-4,2′-pyrrolo[2,1-b][1,3]oxazol]-3′-one]
38.1 nM	N#Cc1cc(N2CCC3(CC2)SC2CCC(c4cc(F)cc(F)c4)N2C3=O)ncn1 (stereo not shown) [Example 4.111, 6-(5′-(3,5-difluorophenyl)-3′-oxotetrahydro-3′H-spiro[piperidine-4,2′-pyrrolo[2,1-b]thiazol]-1-yl)pyrimidine-4-carbonitrile]
494 nM	N#Cc1cc(N2CCC3(CC2)N=C2CC[C@@H](c4cc(F)cc(F)c4)N2C3=O)ncn1 [Example 4.80, (S)-[5′-(3,5-difluorophenyl)-3′-oxo-6′,7′-dihydro-1H,3′H,5′H-spiro[piperidine-4,2′-pyrrolo[1,2-a]imidazol]-1-yl]pyrimidine-4-carbonitrile]
< 25 nM	O=C(c1ccc(Cl)cc1F)N1CCC2(CC1)O[C@@H]1CC[C@@H](c3cc(F)cc(F)c3)N1C2=O [Example 5.59, (5′S,7a′R)-1-(4-chloro-2-fluorobenzoyl)-5′-(3,5-difluorophenyl)tetrahydro-3′H-spiro[piperidine-4,2′-pyrrolo[2,1-b]oxazol]-3′-one]
826 nM	CC1CC2(CCN1C(=O)c1ncccc1F)O[C@@H]1CC[C@@H](c3cccc(F)c3)N1C2=O (stereo partly drawn) [Example 6.159, (4R,5′S,7a′R)-5′-(3-fluorophenyl)-1-(3-fluoropyridine-2-carbonyl)-2-methyl-tetrahydro-3′H-spiro [piperidine-4,2′-pyrrolo[2,1-b][1,3]oxazol]-3′-one]
147 nM	O=C(c1ncccc1Cl)N1CCC2(CC1)O[C@@H]1CC[C@@H](c3cc(F)cc(F)c3)N1C2=O [Example 6.53, (5′S,7a′R)-1-(3-chloropyridine-2-carbonyl)-5′-(3,5-difluorophenyl)tetra-hydro-3′H-spiro [piperidine-4,2′-pyrrolo[2,1-b][1,3]-oxazol]-3′-one]
261 nM	O=C(c1ccccc1OC(F)F)N1CCC2(CC1)O[C@@H]1CC[C@@H](c3cc(F)cc(F)c3)N1C2=O [Example 6.61, (5′S,7a′R)-1-[2-(difluoromethoxy)-benzene-1-carbonyl]-5′-(3,5-difluorophen-yl)tetrahydro-3′H-spiro[piperidine-4,2′-pyrrolo[2,1-b][1,3]-oxazol]-3′-one]
48.8 nM	Cc1cnn(-c2cc(N3CCC4(CC3)O[C@@H]3CC[C@@H](c5ccccc5)N3C4=O)ncn2)c1 [Example 4.176, (5′S,7a′R)-1-[6-(4-methyl-1H-pyrazol-1-yl)pyrimidin-4-yl]-5′-phenyltetrahydro-3′H-spiro[piperidine-4,2′-pyrrolo[2,1-b] [1,3]oxazol]-3′-one]
409 nM	O=C(C1CCCC1)N1CCC2(CC1)O[C@@H]1CC[C@@H](c3cc(F)cc(F)c3)N1C2=O [Example 5.32, (5′S,7a′R)-1-(cyclopentane-carbonyl)-5′-(3,5-difluoro-phenyl)tetrahydro-3′H-spiro[piperidine-4,2′-pyrrolo[2,1-b]oxazol]-3′-one]
760 nM	Cc1cncc(C(=O)N2CCC3(CC2)O[C@@H]2CC[C@@H](c4cc(F)cc(F)c4)N2C3=O)n1 [Example 6.4, (5′S,7a′R)-5′-(3,5-difluorophenyl)-1-(6-methylpyrazine-2-carbonyl)tetrahydro-3′H-spiro[piperidine-4,2′-pyrrolo[2,1-b] [1,3]oxazol]-3′-one]
136 nM	O=C(c1ccccc1)N1CCC2(CC1)O[C@@H]1[C@@H](O)C[C@@H](c3ccccc3)N1C2=O [Example 6.136]

SMILES	EC50
N#Cc1ccc(N2CCC3(CC2)O[C@@H]2CC[C@@H](c4cc(F)cc(F)c4)N2C3=O)cc1F [Example 4.18, 4-[(5′S,7a′R)-5′-(3,5-difluorophenyl)-3′-oxotetrahydro-1H,3′H-spiro[piperidine-4,2′-pyrrolo[2,1-b] [1,3]oxazol]-1-yl]-2-fluorobenzonitrile]	< 25 nM
